Data taken from paper PMC11866022, “Long-Chain Cyclic Arylguanidines as Multifunctional Serotonin Receptor Ligands with Antiproliferative Activity” (ACS Omega, 2025).

Assays:
5-HT7 [1] = target: T1, 5-HT7 (Homo sapiens, UniProt P34969); assay: Functional cAMP assay (LANCE Ultra), 5-HT7; assay type: cell-based
T1 construct: expressed in transfected cells; host or cells: HEK293
Method: Their functional activity was also evaluated by assessing their ability to inhibit agonist-induced cAMP production in HEK293 cells (Table 3). Extended radioisotope tests were aimed at detecting potential affinity for other aminergic receptors, whose role in cancer treatment may be important. Functions were tested for all receptors. The essence of functional tests results from the fact that serotonin stimulates tumor progression. Therefore, the ligand should have the potential to reduce its concentration, i.e., act as an antagonist.[39]
The detailed procedure is presented in previous publications.[53] The functional activity of the compounds was assessed using the LANCE Ultra cAMP detection kit (PerkinElmer). […] For other receptors (5-HT7R, 5-HT1AR, and 5-HT6R), 5-CT was used at 10, 100, and 1000 nM, respectively. Each compound was tested in triplicate across eight concentrations. The inhibitory constant (Kb) for each antagonist was calculated using the Cheng–Prusoff equation.

5-HT7 [2] = target: T1, 5-HT7; assay: Functional cAMP assay (LANCE Ultra), 5-HT7; assay type: cell-based; details: Table 3, unit inferred, agonist mode
[3] = test system: HSA and AGP in a ratio 24:1; assay: TRANSILXL PPB plasma protein binding assay; details: Figures S149, S150
cancer cell lines = assay: Antiproliferative activity over the tested cancer cell lines; assay type: cell-based; details: Homo sapiens; range or bound over several cell lines
Method: The chosen group of ligands was further examined for their ability to inhibit proliferation across multiple cancer cell lines related to the CNS system (1321N1, U87MG, LN-229, and U-251). These cell lines were characterized by different mutation profiles, the main one being the variable status of the p53 protein. In detail, U87MG cells have a wild-type p53 protein, while astrocytoma and the rest of GBM cells harbor mutated p53 protein. Additional assays were performed on MCF7 breast cancer and AsPC-1 pancreatic cancer cells. The wide range of tested lines was aimed at screening the anticancer potential of the tested compounds. The first represents one of the most common and the second one of the most aggressive cancers in the world. Comparing the activity of compounds on GBM cells to other types of cancer may reveal their selectivity and usefulness in targeted therapies. The cytotoxicity of the compounds on normal human astrocytes (NHA) and Feline catus astrocyte (PG-4) was determined. Tests on normal lines serve to verify the potential toxicity of the tested compounds on healthy cells. Due to the targeting of CNS tumors, astrocytes were selected as normal lines.
The detailed procedure is presented in previous publications.[53] […] Cell viability was assessed using the MTS assay, and the inhibitory concentration (IC50) was calculated using GraphPad Prism 8.0. […]

T1 sequence (P34969 whole entry, species assumed): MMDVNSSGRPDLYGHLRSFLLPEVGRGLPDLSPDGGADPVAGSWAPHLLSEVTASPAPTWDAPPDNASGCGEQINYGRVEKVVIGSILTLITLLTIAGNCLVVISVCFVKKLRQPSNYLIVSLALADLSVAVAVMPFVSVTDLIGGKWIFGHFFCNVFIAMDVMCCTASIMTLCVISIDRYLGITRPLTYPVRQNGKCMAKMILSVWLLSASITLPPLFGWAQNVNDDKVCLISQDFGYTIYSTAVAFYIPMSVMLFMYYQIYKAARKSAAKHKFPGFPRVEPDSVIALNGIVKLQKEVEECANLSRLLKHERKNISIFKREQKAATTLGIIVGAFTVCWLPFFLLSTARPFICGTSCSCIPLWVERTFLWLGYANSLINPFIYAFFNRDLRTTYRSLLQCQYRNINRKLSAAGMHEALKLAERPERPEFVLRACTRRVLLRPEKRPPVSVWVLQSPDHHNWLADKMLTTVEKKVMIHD

SMILES	Kb (5-HT7 [1]; Table 3, unit inferred, cAMP, antagonist mode, 5-CT) [µM]	function at 5-HT7 (5-HT7 [1]; in words)	EC50 (5-HT7 [2]) [µM]	amount remaining after incubation with human plasma proteins (UPLC) [3]	IC50 (cancer cell lines) [µM]
CC1NC(NCCCCCCNS(=O)(=O)c2cccc3ccccc23)=Nc2ccccc21 (stereo not drawn) [PP 10, N-{6-[(4-Methyl-3,4-dihydroquinazolin-2-yl)amino]hexyl}naphthalene-1-sulfonamide]	0.236	antagonist			
CC1NC(NCCCCCCNS(=O)(=O)c2c(Cl)ccc3ccccc23)=Nc2ccccc21 (stereo not drawn) [PP 13, 2-Chloro-N-{6-[(4-methyl-3,4-dihydroquinazolin-2-yl)amino]hexyl}naphthalene-1-sulfonamide]			0.053	COMPOUND NOT DETECTED	
O=S1(=O)c2cccc3cccc(c23)N1CCCCCCNC1=Nc2ccccc2CN1 [PP 24, 3-{6-[(3,4-Dihydroquinazolin-2-yl)amino]hexyl}-2λ^6-thia-3-azatricyclo[6.3.1.0^4,^12]dodeca-1(11),4(12),5,7,9-pentaene-2,2-dione]				COMPOUND NOT DETECTED	7.4 to 18.3
